For 30 compounds, IC50 and EC50 results are on record in US20250368627A1, “PYRAZOLESULFONAMIDES AS ANTITUMOR AGENTS” (Peloton Therapeutics, Inc., a fully owned subsidiary of …, priority 2019, published 2025).

The target of experiment [1] is T1, DDB1DB/DCAF15 and RBM39 R1R2 complex (Homo sapiens, UniProt Q14498+Q66K64).
T1 construct: Amino acids 150 to 331 of RBM39 were cloned into pGEX4T3; GST (from vector pGEX4T3); TEV cleavage site (N); made in house; host or cells: DDB1DB/His-DCAF15: baculovirus/Sf9 co-expression; RBM39 R1R2: E. coli (pGEX4T3)
T1 sequence (Q66K64 whole entry, the tested form may be a part): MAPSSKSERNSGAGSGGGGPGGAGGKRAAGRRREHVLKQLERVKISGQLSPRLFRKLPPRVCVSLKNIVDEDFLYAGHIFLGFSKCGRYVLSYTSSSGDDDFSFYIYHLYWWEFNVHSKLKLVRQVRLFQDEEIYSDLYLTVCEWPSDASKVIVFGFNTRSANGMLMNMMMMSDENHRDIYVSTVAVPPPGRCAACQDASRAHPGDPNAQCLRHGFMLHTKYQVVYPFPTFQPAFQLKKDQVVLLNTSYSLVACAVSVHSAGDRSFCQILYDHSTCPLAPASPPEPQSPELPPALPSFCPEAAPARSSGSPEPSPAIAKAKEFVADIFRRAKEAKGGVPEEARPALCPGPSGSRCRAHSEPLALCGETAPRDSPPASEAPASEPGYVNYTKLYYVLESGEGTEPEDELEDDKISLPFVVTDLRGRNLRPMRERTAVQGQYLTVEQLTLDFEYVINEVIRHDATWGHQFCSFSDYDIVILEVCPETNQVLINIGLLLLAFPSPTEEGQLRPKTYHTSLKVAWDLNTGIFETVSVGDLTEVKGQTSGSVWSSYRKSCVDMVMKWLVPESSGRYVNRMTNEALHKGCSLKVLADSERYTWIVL
T1 sequence (Q14498 150-331): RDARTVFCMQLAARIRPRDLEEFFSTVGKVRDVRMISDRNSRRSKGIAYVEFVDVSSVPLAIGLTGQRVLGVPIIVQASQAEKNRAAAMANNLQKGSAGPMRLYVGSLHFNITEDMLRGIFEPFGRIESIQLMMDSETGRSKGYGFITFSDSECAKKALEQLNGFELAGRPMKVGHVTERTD
T1 sequence (Q16531 with tags, fused parts or gaps DEL396-708 partner): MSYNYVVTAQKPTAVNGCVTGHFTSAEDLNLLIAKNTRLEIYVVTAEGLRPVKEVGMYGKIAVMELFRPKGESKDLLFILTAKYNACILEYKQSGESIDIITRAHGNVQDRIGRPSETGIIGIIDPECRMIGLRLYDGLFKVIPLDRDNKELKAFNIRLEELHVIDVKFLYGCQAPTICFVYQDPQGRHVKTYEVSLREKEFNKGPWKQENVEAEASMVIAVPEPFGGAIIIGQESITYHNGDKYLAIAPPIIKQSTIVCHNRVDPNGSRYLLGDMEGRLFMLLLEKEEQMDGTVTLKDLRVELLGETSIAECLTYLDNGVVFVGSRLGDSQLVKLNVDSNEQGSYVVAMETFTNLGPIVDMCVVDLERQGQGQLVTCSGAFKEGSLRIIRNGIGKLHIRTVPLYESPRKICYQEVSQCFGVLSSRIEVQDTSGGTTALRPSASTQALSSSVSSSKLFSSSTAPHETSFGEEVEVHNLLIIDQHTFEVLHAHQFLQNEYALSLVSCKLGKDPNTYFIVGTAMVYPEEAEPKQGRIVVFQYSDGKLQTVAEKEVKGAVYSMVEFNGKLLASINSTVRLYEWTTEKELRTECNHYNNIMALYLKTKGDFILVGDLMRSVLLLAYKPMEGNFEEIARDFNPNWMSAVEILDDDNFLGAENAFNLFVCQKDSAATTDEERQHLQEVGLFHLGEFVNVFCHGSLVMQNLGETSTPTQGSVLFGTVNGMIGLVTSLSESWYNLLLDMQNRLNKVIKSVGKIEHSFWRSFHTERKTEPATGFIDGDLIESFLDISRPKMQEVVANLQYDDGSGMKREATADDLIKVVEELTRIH
As to the kind of experiment: DCAF15 RBM39 Complex Formation Assay (FRET). In kind it is binding. As to conditions: FRET ratio Em 665/Em 615, incubated overnight at 4° C. A digest of the protocol:
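Ternary complex formation read by TR-FRET (Em 665/615, excitation 340 nm) after overnight incubation at 4° C of 20 nM baculovirus DDB1DB/His-DCAF15 and 50 nM E. coli RBM39 RRM1-RRM2 FLAG fragment with 14-point, 3-fold compound dilutions from 1 μM; EC50 from 4-parameter fit.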

The test system of experiment [2] is HCT116 human colorectal carcinoma cells. Nature of the experiment: CellTiter-Glo Luminescent Cell Viability Assay. Type of experiment: cell-based. The note with it: HCT-116, 72 h, 3 days. The procedure, abridged: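 CellTiter-Glo luminescence gave viability after 3 days of compound exposure in HCT116 cells grown in DMEM/10% FBS. Final concentrations ran from 5 to 0.0002 […] in 1:3 steps, each in triplicate, with IC50 derived from the curves.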
In general terms: Cellular ATP, detected with luciferase, serves as a proxy for viable cell number.

In the case of `Cc1ccc(NS(=O)(=O)c2cnn(CC(=O)O)c2)c2[nH]cc(C#N)c12` [Compound 134, 2-[4-[(3-cyano-4-methyl-1H-indol-7-yl)sulfamoyl]pyrazol-1-yl]acetic acid], the IC50 in experiment [1] was less than 250 nM. Further, the EC50 in experiment [2] was greater than 1000 nM.

Consider `[2H]C([2H])([2H])n1cc(S(=O)(=O)Nc2ccc(Cl)c3c(C#N)c[nH]c23)cn1` [Compound 135, N-(4-chloro-3-cyano-1H-indol-7-yl)-1-(trideuteriomethyl)pyrazole-4-sulfonamide], for which the IC50 in experiment [1] was less than 250 nM. Besides, in experiment [2], the EC50 is less than 250 nM.

In the case of `Cc1ccc(NS(=O)(=O)c2cnn(CC(=O)NC3CC(F)(F)C3)c2)c2[nH]cc(C#N)c12` [Compound 137, 2-[4-[(3-cyano-4-methyl-1H-indol-7-yl)sulfamoyl]pyrazol-1-yl]-N-(3,3-difluorocyclobutyl)acetamide], in experiment [1], the half-maximal inhibitory concentration (IC50) was less than 250 nM. Besides, in experiment [2], the half-maximal effective concentration (EC50) is greater than 1000 nM.

With `Cc1ccc(NS(=O)(=O)c2cnn(CC(=O)N3C[C@@H](F)[C@@H](F)C3)c2)c2[nH]cc(C#N)c12` [Compound 138, N-(3-cyano-4-methyl-1H-indol-7-yl)-1-[2-[(3R,4S)-3,4-difluoropyrrolidin-1-yl]-2-oxo-ethyl]pyrazole-4-sulfonamide], the IC50 in experiment [1] was less than 250 nM. Moreover, in experiment [2], the EC50 was greater than 1000 nM.

In the case of `CNC(=O)Cn1cc(S(=O)(=O)Nc2ccc(C)c3c(C#N)c[nH]c23)cn1` [Compound 139, 2-[4-[(3-cyano-4-methyl-1H-indol-7-yl)sulfamoyl]pyrazol-1-yl]-N-methyl-acetamide], the IC50 in experiment [1] was less than 250 nM. In addition, in experiment [2], the EC50 was greater than 1000 nM.

For `Cc1ccc(NS(=O)(=O)c2cnn(CC(=O)N(C)C)c2)c2[nH]cc(C#N)c12` [Compound 140, 2-[4-[(3-cyano-4-methyl-1H-indol-7-yl)sulfamoyl]pyrazol-1-yl]-N,N-dimethyl-acetamide], the IC50 in experiment [1] is 250 to 1000 nM. The EC50 in experiment [2] was greater than 1000 nM.

As to `Cc1ccc(NS(=O)(=O)c2cnn(CC(N)=O)c2)c2[nH]cc(C#N)c12` [Compound 141, 2-[4-[(3-cyano-4-methyl-1H-indol-7-yl)sulfamoyl]pyrazol-1-yl]acetamide], the 50% inhibitory concentration (IC50) in experiment [1] was less than 250 nM. The concentration for a half-maximal effect (EC50) in experiment [2] is greater than 1000 nM.

In the case of `Cc1ccc(NS(=O)(=O)c2cnn(CC(=O)N3CCCC3)c2)c2[nH]cc(C#N)c12` [Compound 142, N-(3-cyano-4-methyl-1H-indol-7-yl)-1-(2-oxo-2-pyrrolidin-1-yl-ethyl)pyrazole-4-sulfonamide], in experiment [1], the half-inhibitory concentration (IC50) is less than 250 nM. Moreover, the EC50 in experiment [2] is greater than 1000 nM.

Turning to `O=S(=O)(Nc1ccc(Cl)c2c(Cl)c[nH]c12)c1cnn(C2COC2)c1` [Compound 143, N-(3,4-dichloro-1H-indol-7-yl)-1-(oxetan-3-yl)pyrazole-4-sulfonamide], the IC50 in experiment [1] was less than 250 nM. For the same compound, the EC50 in experiment [2] was less than 250 nM.

With `Cc1ccc(NS(=O)(=O)c2cnn(C3COC3)c2F)c2[nH]cc(C#N)c12` [Compound 144, N-(3-cyano-4-methyl-1H-indol-7-yl)-5-fluoro-1-(oxetan-3-yl)pyrazole-4-sulfonamide], the half-maximal inhibitory concentration (IC50) in experiment [1] is less than 250 nM. The EC50 in experiment [2] is 250 to 1000 nM.

With `Cc1ccc(NS(=O)(=O)c2cnn(CC3(C#N)CC3)c2)c2[nH]cc(C#N)c12` [Compound 145, N-(3-cyano-4-methyl-1H-indol-7-yl)-1-((1-cyanocyclopropyl)methyl)-1H-pyrazole-4-sulfonamide], in experiment [1], the concentration for half-maximal inhibition (IC50) was less than 250 nM. Besides, the EC50 in experiment [2] is 250 to 1000 nM.

For the compound `Cc1ccc(NS(=O)(=O)c2cnn(C3CCNC3=O)c2)c2[nH]cc(C#N)c12` (stereo not drawn) [Compound 146, N-(3-cyano-4-methyl-1H-indol-7-yl)-1-(2-oxopyrrolidin-3-yl)pyrazole-4-sulfonamide], the IC50 in experiment [1] was less than 250 nM. Further, the 50% effective concentration (EC50) in experiment [2] was greater than 1000 nM.

Consider `N#Cc1c[nH]c2c(NS(=O)(=O)c3cnn(C4CCNC4=O)c3)ccc(Cl)c12` (stereo not drawn) [Compound 147, N-(4-chloro-3-cyano-1H-indol-7-yl)-1-(2-oxopyrrolidin-3-yl)pyrazole-4-sulfonamide], for which the IC50 in experiment [1] is less than 250 nM. In addition, the EC50 in experiment [2] is greater than 1000 nM.

As for `Cc1ccc(NS(=O)(=O)c2cn(C)nc2F)c2[nH]cc(C#N)c12` [Compound 148, N-(3-cyano-4-methyl-1H-indol-7-yl)-3-fluoro-1-methyl-pyrazole-4-sulfonamide], the half-inhibitory concentration (IC50) in experiment [1] was less than 250 nM. In experiment [2], the EC50 lay within 250 to 1000 nM.

With `Cc1ccc(NS(=O)(=O)c2cnn(C)c2C(F)F)c2[nH]cc(C#N)c12` [Compound 149, N-(3-cyano-4-methyl-1H-indol-7-yl)-5-(difluoromethyl)-1-methyl-pyrazole-4-sulfonamide], in experiment [1], the IC50 was less than 250 nM. In addition, the concentration giving a half-maximal response (EC50) in experiment [2] was 250 to 1000 nM.

For `Cn1ncc(S(=O)(=O)Nc2ccc(Cl)c3c(C#N)c[nH]c23)c1C(F)F` [Compound 150, N-(4-chloro-3-cyano-1H-indol-7-yl)-5-(difluoromethyl)-1-methyl-pyrazole-4-sulfonamide], the concentration for half-maximal inhibition (IC50) in experiment [1] was less than 250 nM. The EC50 in experiment [2] lay within 250 to 1000 nM.

In the case of `Cc1ccc(NS(=O)(=O)c2cnn([C@H]3CNC[C@H]3F)c2)c2[nH]cc(C#N)c12` [Compound 151, N-(3-cyano-4-methyl-1H-indol-7-yl)-1-[(3S,4R)-4-fluoropyrrolidin-3-yl]pyrazole-4-sulfonamide], in experiment [1], the half-maximal inhibitory concentration (IC50) was less than 250 nM. Moreover, the concentration for a half-maximal effect (EC50) in experiment [2] is greater than 1000 nM.

As for `N#Cc1c[nH]c2c(NS(=O)(=O)c3cnn([C@H]4CNC[C@H]4F)c3)ccc(Cl)c12` [Compound 152, N-(4-chloro-3-cyano-1H-indol-7-yl)-1-[(3S,4R)-4-fluoropyrrolidin-3-yl]pyrazole-4-sulfonamide], in experiment [1], the IC50 is less than 250 nM. Further, the EC50 in experiment [2] is greater than 1000 nM.

As to `Cc1ccc(NS(=O)(=O)c2cnn([C@H]3CN(C(=O)OC(C)(C)C)C[C@H]3F)c2)c2[nH]cc(C#N)c12` [Compound 153, tert-butyl (3S,4R)-3-[4-[(3-cyano-4-methyl-1H-indol-7-yl)sulfamoyl]pyrazol-1-yl]-4-fluoro-pyrrolidine-1-carboxylate], in experiment [1], the concentration for half-maximal inhibition (IC50) was less than 250 nM. The 50% effective concentration (EC50) in experiment [2] is greater than 1000 nM.

As to `CC(C)(C(N)=O)n1cc(S(=O)(=O)Nc2ccc(Cl)c3c(C#N)c[nH]c23)cn1` [Compound 154, 2-[4-[(4-chloro-3-cyano-1H-indol-7-yl)sulfamoyl]pyrazol-1-yl]-2-methyl-propanamide], in experiment [1], the IC50 is less than 250 nM. For the same compound, in experiment [2], the half-maximal effective concentration (EC50) was in the range of 250 to 1000 nM.

Consider `Cc1ccc(NS(=O)(=O)c2cnn(C)c2Cl)c2[nH]cc(C#N)c12` [Compound 155, 5-chloro-N-(3-cyano-4-methyl-1H-indol-7-yl)-1-methyl-pyrazole-4-sulfonamide], for which, in experiment [1], the half-maximal inhibitory concentration (IC50) is less than 250 nM. Moreover, in experiment [2], the EC50 is less than 250 nM.

Take `Cn1ncc(S(=O)(=O)Nc2ccc(Cl)c3c(C#N)c[nH]c23)c1Cl` [Compound 156, 5-chloro-N-(4-chloro-3-cyano-1H-indol-7-yl)-1-methyl-pyrazole-4-sulfonamide]: the concentration for half-maximal inhibition (IC50) in experiment [1] is less than 250 nM. The EC50 in experiment [2] was in the range of 250 to 1000 nM.

Turning to `Cc1ccc(NS(=O)(=O)c2cnn(C3(CC#N)COC3)c2)c2[nH]cc(C#N)c12` [Compound 157, N-(3-cyano-4-methyl-1H-indol-7-yl)-1-[3-(cyanomethyl)oxetan-3-yl]pyrazole-4-sulfonamide], the IC50 in experiment [1] is less than 250 nM. The EC50 in experiment [2] was 250 to 1000 nM.

Regarding `N#CCC1(n2cc(S(=O)(=O)Nc3ccc(Cl)c4c(C#N)c[nH]c34)cn2)COC1` [Compound 158, N-(4-chloro-3-cyano-1H-indol-7-yl)-1-[3-(cyanomethyl)oxetan-3-yl]pyrazole-4-sulfonamide], the half-maximal inhibitory concentration (IC50) in experiment [1] is less than 250 nM. In addition, the 50% effective concentration (EC50) in experiment [2] lay in the range of 250 to 1000 nM.

For the compound `O=S(=O)(Nc1ccc(Cl)c2c(Cl)c[nH]c12)c1cn[nH]c1` [Compound 159, N-(3,4-dichloro-1H-indol-7-yl)-1H-pyrazole-4-sulfonamide], the concentration for half-maximal inhibition (IC50) in experiment [1] is less than 250 nM. Further, in experiment [2], the half-maximal effective concentration (EC50) was less than 250 nM.

On to `N#CCC1(n2cc(S(=O)(=O)Nc3ccc(Cl)c4c(Cl)c[nH]c34)cn2)COC1` [Compound 160, 1-[3-(cyanomethyl)oxetan-3-yl]-N-(3,4-dichloro-1H-indol-7-yl)pyrazole-4-sulfonamide], for which, in experiment [1], the IC50 was less than 250 nM. Also, the EC50 in experiment [2] is less than 250 nM.

Turning to `Cc1ccc(NS(=O)(=O)c2cnn(C)c2N)c2[nH]cc(C#N)c12` [Compound 161, 5-amino-N-(3-cyano-4-methyl-1H-indol-7-yl)-1-methyl-pyrazole-4-sulfonamide], the IC50 in experiment [1] is less than 250 nM. In addition, in experiment [2], the half-maximal effective concentration (EC50) is less than 250 nM.

Take `N#Cc1c[nH]c2c(NS(=O)(=O)c3cnn(CCO)c3)ccc(Cl)c12` [Compound 162, N-(4-chloro-3-cyano-1H-indol-7-yl)-1-(2-hydroxyethyl)pyrazole-4-sulfonamide]: the IC50 in experiment [1] was less than 250 nM. For the same compound, the EC50 in experiment [2] was in the range of 250 to 1000 nM.

For the compound `O=S(=O)(Nc1ccc(Cl)c2c(Cl)c[nH]c12)c1cnn(CCO)c1` [Compound 163, N-(3,4-dichloro-1H-indol-7-yl)-1-(2-hydroxyethyl)pyrazole-4-sulfonamide], the concentration for half-maximal inhibition (IC50) in experiment [1] was less than 250 nM. Also, the concentration for a half-maximal effect (EC50) in experiment [2] was less than 250 nM.

`N#Cc1c[nH]c2c(NS(=O)(=O)c3cnn(C(CO)(CO)CCl)c3)ccc(Cl)c12` [Compound 164, N-(4-chloro-3-cyano-1H-indol-7-yl)-1-[1-(chloromethyl)-2-hydroxy-1-(hydroxymethyl)ethyl]pyrazole-4-sulfonamide]: the IC50 in experiment [1] is less than 250 nM. Also, in experiment [2], the 50% effective concentration (EC50) was in the range of 250 to 1000 nM.

As a reminder, the IC50 is the midpoint of a concentration-inhibition curve. The EC50 is the concentration that produces a half-maximal response.
